Experimental data published in ChEMBL document CHEMBL1667728, “Stachylines A-D from the sponge-derived fungus Stachylidium sp” (J Nat Prod, 2011).
Active and inactive are the calls of the source. No cut-off for these calls is given here.

Key:
[1] = system: Human immunodeficiency virus; assay: Antiviral activity against HIV; type: functional, organism-based
Influenza A virus = assay: Antiviral activity against Influenza virus; type: functional, organism-based

With `C=C(C)[C@H](O)COc1ccc(CCO)cc1` the Activity [1] was “inactive” and the Activity (Influenza A virus) was “inactive”.

In the case of `C=C(C)[C@H](O)COc1ccc(CC=NO)cc1` (mixture of isomers), the Activity [1] is reported as “inactive” and the Activity (Influenza A virus) is reported as “inactive”.

`C=C(C)[C@H](O)COc1ccc(CC(=O)O)cc1` was tested, and the Activity [1] was “inactive” and the Activity (Influenza A virus) was “inactive”.
